Measurements taken from ChEMBL document CHEMBL4602695, “Discovery and SARs of 5-Chloro-N4-phenyl-N2-(pyridin-2-yl)pyrimidine-2,4-diamine Derivatives as Oral Available and Dual CDK 6 and 9 Inhibitors with Potent Antitumor Activity” (J Med Chem, 2020).

What was measured:
CDK9/Cyclin K = CDK9/Cyclin K (Homo sapiens, UniProt P50750); assay: biochemical
CDK2/Cyclin A2 = CDK2/Cyclin A2 (Homo sapiens, UniProt P24941); design: species or system Sf9
MDA-MB-231 = assay: Antiproliferative activity against human MDA-MB-231 cells assessed as inhibition of cell proliferation measured after 48 hrs by CCK8 assay; type: functional, cell-based; settings: MDA-MB-231, 48 h
CDK6/cyclin D3 = CDK6/cyclin D3 (Homo sapiens, UniProt Q00534); design: species or system Sf9
Jurkat = assay: Antiproliferative activity against human Jurkat cells assessed as inhibition of cell proliferation measured after 48 hrs by CCK8 assay; type: functional, cell-based
MCF7 = assay: Antiproliferative activity against human MCF7 cells assessed as inhibition of cell proliferation measured after 48 hrs by CCK8 assay; type: functional, cell-based; settings: MCF7, 48 h
[1] = Cytotoxicity against human L02 cells assessed as inhibition of cell proliferation measured after 48 hrs by CCK8 assay; type: cell-based

Sequence of CDK9/Cyclin K (P50750 whole entry): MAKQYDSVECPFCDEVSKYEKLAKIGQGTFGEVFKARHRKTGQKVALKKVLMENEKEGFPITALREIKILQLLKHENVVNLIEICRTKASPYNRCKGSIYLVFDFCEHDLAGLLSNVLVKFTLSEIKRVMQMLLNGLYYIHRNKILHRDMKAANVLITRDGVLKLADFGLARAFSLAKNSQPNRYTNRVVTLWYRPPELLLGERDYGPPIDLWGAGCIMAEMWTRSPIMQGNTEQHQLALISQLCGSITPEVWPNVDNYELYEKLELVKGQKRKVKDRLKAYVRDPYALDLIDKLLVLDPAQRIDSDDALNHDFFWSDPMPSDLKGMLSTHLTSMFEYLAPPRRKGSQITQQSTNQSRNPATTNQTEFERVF
Sequence of CDK9/Cyclin K (O75909 whole entry, further chain): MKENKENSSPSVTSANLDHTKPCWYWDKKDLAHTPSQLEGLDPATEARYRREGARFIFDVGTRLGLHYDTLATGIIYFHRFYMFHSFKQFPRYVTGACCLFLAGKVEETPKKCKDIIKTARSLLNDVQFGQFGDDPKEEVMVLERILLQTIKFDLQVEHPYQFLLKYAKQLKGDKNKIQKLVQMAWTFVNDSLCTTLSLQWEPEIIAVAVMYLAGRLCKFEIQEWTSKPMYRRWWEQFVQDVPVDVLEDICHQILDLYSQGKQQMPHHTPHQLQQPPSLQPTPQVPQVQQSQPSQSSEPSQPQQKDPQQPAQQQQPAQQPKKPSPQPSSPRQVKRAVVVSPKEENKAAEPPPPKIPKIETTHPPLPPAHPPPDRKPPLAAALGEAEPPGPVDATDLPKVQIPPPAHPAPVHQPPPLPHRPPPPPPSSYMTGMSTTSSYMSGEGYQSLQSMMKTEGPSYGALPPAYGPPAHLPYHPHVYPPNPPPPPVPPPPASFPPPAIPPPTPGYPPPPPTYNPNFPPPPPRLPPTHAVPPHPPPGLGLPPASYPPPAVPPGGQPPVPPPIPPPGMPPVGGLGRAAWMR
Sequence of CDK6/cyclin D3 (P30281 whole entry): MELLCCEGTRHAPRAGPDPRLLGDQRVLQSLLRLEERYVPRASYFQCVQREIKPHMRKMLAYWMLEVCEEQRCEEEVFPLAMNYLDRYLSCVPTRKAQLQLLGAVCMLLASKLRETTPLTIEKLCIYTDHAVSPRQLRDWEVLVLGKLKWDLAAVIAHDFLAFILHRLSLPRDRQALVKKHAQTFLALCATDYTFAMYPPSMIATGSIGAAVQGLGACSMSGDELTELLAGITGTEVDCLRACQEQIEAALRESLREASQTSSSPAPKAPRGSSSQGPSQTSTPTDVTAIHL
Sequence of CDK6/cyclin D3 (Q00534 whole entry): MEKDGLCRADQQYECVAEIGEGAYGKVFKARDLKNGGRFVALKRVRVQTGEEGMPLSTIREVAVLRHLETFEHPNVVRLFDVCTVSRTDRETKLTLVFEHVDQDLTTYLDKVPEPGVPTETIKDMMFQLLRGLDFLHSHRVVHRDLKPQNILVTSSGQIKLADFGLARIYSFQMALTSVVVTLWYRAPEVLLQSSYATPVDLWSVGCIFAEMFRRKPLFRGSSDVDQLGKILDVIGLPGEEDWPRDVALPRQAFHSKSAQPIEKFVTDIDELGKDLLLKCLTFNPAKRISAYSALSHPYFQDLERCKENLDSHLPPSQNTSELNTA

| SMILES | IC50 (CDK9/Cyclin K) [µM] | IC50 (CDK2/Cyclin A2) [µM] | GI50 (MDA-MB-231) [µM] | IC50 (CDK6/cyclin D3) [µM] | GI50 (Jurkat) [µM] | GI50 (MCF7) [µM] | GI50 at 48 h [1] [µM] |
| --- | --- | --- | --- | --- | --- | --- | --- |
| COc1cc(Nc2ncc(Cl)c(Nc3ccccc3C)n2)ccn1 | 0.908 | 0.074 | 42.6 | > 10 | 9.38 | > 100 | 18.4 |
| Cc1ccccc1Nc1nc(NCCc2cccnc2)ncc1Cl | > 10 | > 10 | > 100 | > 10 | > 100 | > 100 | > 100 |
| CCN1CCN(c2ccc(Nc3ncc(Cl)c(Nc4ccccc4C)n3)nc2)CC1 | > 10 | 9.18 | > 100 | > 10 | > 100 | > 100 | > 100 |
| Cc1ccc(Nc2ncc(Cl)c(Nc3ccccc3C)n2)cc1 | > 10 | > 10 | > 100 | > 10 | > 100 | > 100 | > 100 |
| Cc1ccccc1Nc1nc(Nc2ccc(N3CCNCC3)cn2)ncc1Cl | 0.114 | 2.06 | 5.06 | 0.042 | 7.87 | 3.41 | 1.85 |
| CN1CCN(c2ccc(Nc3ncc(Cl)c(NCc4ccc(C(F)(F)F)cc4)n3)nc2)CC1 | > 10 | > 10 | 19.1 | 8.93 | 7.96 | 28.4 | 26.2 |
| COc1ccc(CCNc2nc(Nc3ccc(N4CCN(C)CC4)cn3)ncc2Cl)cc1 | > 10 | > 10 | > 100 | > 10 | > 100 | 38.4 | > 100 |
| Cc1ccccc1Nc1nc(NCc2ccncc2)ncc1Cl | > 10 | > 10 | > 100 | > 10 | > 100 | > 100 | > 100 |
| CN1CCN(c2ccc(Nc3ncc(Cl)c(NCCc4ccc(F)cc4)n3)nc2)CC1 | > 10 | > 10 | 28.5 | > 10 | > 100 | > 100 | > 100 |
| CN1CCN(c2ccc(Nc3ncc(Cl)c(NCCc4ccccc4F)n3)nc2)CC1 | > 10 | > 10 | > 100 | 3.71 | 14.3 | 8.73 | 9.67 |
| CC(C)c1ccc(Nc2nc(Nc3ccc(N4CCN(C)CC4)cn3)ncc2Cl)cc1 | 9.17 | > 10 | 7.02 | 0.126 | 7.53 | 1.88 | 13.7 |
| COc1ccc(Nc2nc(Nc3ccc(N4CCN(C)CC4)cn3)ncc2Cl)cc1 | 1.38 | 6.11 | 8.02 | 0.606 | 11.2 | 8.45 | 3.15 |
| COc1cccc(CNc2nc(Nc3ccc(N4CCN(C)CC4)cn3)ncc2Cl)c1 | 3.29 | > 10 | 20.3 | 1.6 | 73.4 | 19.5 | 16.2 |
| Cc1ccccc1Nc1nc(Nc2ccccn2)ncc1Cl | 8.11 to 8.12 | 0.643 | 11.2 | 2.76 | 20.1 | 31.4 | 6.15 |
| COc1ccccc1CNc1nc(Nc2ccc(N3CCN(C)CC3)cn2)ncc1Cl | > 10 | > 10 | 29.3 | > 10 | 10.8 | > 100 | 25.5 |
| CN1CCN(c2ccc(Nc3ncc(Cl)c(Nc4ccc(C(C)(C)C)cc4)n3)nc2)CC1 | 6.82 | > 10 | 16.2 | 0.735 | – | 12.6 | 6.07 |
| CC(C)c1ccccc1Nc1nc(Nc2ccc(N3CCN(C)CC3)cn2)ncc1Cl | 2.65 | > 10 | 4.09 | 0.033 | 5.14 | 4.36 | – |
